Assay results taken from patent US20240158446A1, “CYCLIC COMPOUND HAVING SELECTIVE INHIBITORY ACTION ON KRAS OVER HRAS AND NRAS” (CHUGAI SEIYAKU KABUSHIKI KAISHA, priority 2021, published 2024).

Tests used:
[1] = target: GDP-bound KRAS wild-type protein (Homo sapiens, UniProt P01116); assay: Binding to KRAS by surface plasmon resonance (SPR), Single Cycle Kinetics; settings: SPR, Single Cycle Kinetics, GDP-bound KRAS wild-type protein; read-out: KRAS KD
[2] = target: GDP-bound NRAS wild-type protein (Homo sapiens, UniProt P01111); assay: Binding to NRAS by surface plasmon resonance (SPR), Single Cycle Kinetics; settings: SPR, GDP-bound NRAS wild-type protein vs GDP-bound KRAS wild-type protein
[3] = target: GDP-bound HRAS wild-type protein (Homo sapiens, UniProt P01112); assay: Binding to HRAS by surface plasmon resonance (SPR), Single Cycle Kinetics; settings: SPR, GDP-bound HRAS wild-type protein vs GDP-bound KRAS wild-type protein
Sequence of GDP-bound HRAS wild-type protein (P01112 whole entry): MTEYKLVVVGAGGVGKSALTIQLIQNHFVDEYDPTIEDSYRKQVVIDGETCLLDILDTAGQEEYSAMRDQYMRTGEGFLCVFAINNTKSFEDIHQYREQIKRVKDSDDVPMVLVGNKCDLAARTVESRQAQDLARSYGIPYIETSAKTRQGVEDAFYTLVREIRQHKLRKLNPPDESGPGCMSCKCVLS

Sequence of GDP-bound NRAS wild-type protein (P01111 whole entry): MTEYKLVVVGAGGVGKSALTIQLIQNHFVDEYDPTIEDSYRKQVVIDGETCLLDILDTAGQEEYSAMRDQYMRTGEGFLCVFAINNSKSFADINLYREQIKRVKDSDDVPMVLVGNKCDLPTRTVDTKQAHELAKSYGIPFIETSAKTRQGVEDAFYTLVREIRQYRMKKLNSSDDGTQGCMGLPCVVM
Sequence of GDP-bound KRAS wild-type protein (P01116 whole entry): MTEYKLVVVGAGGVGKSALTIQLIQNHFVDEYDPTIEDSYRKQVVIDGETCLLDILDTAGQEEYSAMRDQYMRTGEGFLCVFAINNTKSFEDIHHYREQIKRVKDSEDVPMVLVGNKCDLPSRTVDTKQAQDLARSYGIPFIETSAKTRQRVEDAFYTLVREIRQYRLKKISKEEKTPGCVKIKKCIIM

SMILES	Kd [1] [pM]	NRAS/KRAS (ratio of KD value for NRAS to KD value for KRAS) [2]	HRAS/KRAS (ratio of KD value for HRAS to KD value for KRAS) [3]
CCCOC[C@H]1C(=O)N[C@@H]([C@@H](C)CC)C(=O)N(C)CC(=O)N(C)[C@H]2C/C=C\CCN(C2=O)[C@@H](Cc2ccc(C(F)(F)F)cc2)C(=O)N(C)CC(=O)N[C@@H](CCc2cc(F)c(C(F)(F)F)c(F)c2)C(=O)N2C[C@@H](C)C[C@H]2C(=O)NC2(CC(C)(C)C2)C(=O)N(C)[C@@H](C2CCCC2)C(=O)N(C)[C@H](C(=O)N(C)CC)CC(=O)N1C [PP2043]	210	A (a compound having 10 or more and less than 20 is denoted as A)	A (a compound having 10 or more and less than 20 is denoted as A)
CCO[C@@H]1C[C@H]2C(=O)NC3(CC(C)(C)C3)C(=O)N(C)[C@@H](C3CCCC3)C(=O)N(C)[C@H](C(=O)N(C)CC)CC(=O)N(C)[C@@H](CC(C)C)C(=O)N[C@@H]([C@@H](C)CC)C(=O)N(C)CC(=O)N(C)[C@H]3C/C=C\CCN(C3=O)[C@@H](Cc3ccc(C(F)F)cc3)C(=O)N(C)CC(=O)N[C@@H](CCc3cc(F)c(C(F)(F)F)c(F)c3)C(=O)N2C1 [PP2046]	63	A (a compound having 10 or more and less than 20 is denoted as A)	A (a compound having 10 or more and less than 20 is denoted as A)
CCO[C@@H]1C[C@H]2C(=O)NC3(CC(C)(C)C3)C(=O)N(C)[C@@H](C3CCCC3)C(=O)N(C)[C@H](C(=O)N(C)C)CC(=O)N(C)[C@@H](CC)C(=O)N[C@@H]([C@@H](C)CC)C(=O)N(C)CC(=O)N(C)[C@H]3C/C=C\CCN(C3=O)[C@@H](Cc3ccc(Cl)cc3F)C(=O)N(C)CC(=O)N[C@@H](CCc3cc(F)c(C(F)(F)F)c(F)c3)C(=O)N2C1 [PP2048]	71	A (a compound having 10 or more and less than 20 is denoted as A)	B (a compound having 3 or more and less than 10 is denoted as B)
CCO[C@@H]1C[C@H]2C(=O)NC3(CC(C)(C)C3)C(=O)N(C)[C@@H](C3CCCC3)C(=O)N(C)[C@H](C(=O)N(C)C)CC(=O)N(C)[C@@H](CC)C(=O)N[C@@H]([C@@H](C)CC)C(=O)N(C)CC(=O)N(C)[C@H]3C/C=C\CCN(C3=O)[C@@H](Cc3ccc(C(F)F)cc3)C(=O)N(C)CC(=O)N[C@@H](CCc3cc(F)c(C(F)(F)F)c(F)c3)C(=O)N2C1 [PP2049]	40	A (a compound having 10 or more and less than 20 is denoted as A)	B (a compound having 3 or more and less than 10 is denoted as B)
C=CCN1CC(=O)N(C)[C@H]2C/C=C\CCN(C2=O)[C@@H](Cc2ccc(C)cc2)C(=O)N(C)CC(=O)N[C@@H](CCc2cc(F)c(C(F)(F)F)c(F)c2)C(=O)N2C[C@H](OCC)C[C@H]2C(=O)NC2(CC(C)(C)C2)C(=O)N(C)[C@@H](C2CCCC2)C(=O)N(C)[C@H](C(=O)N(C)C)CC(=O)N(C)[C@@H](CC(C)C)C(=O)N[C@@H]([C@@H](C)CC)C1=O [PP2050]	190	A (a compound having 10 or more and less than 20 is denoted as A)	A (a compound having 10 or more and less than 20 is denoted as A)
C#CC[C@H]1C(=O)N[C@@H]([C@@H](C)CC)C(=O)N(C)CC(=O)N(C)[C@H]2C/C=C\CCN(C2=O)[C@@H](Cc2ccc(C(F)(F)F)cc2)C(=O)N(C)CC(=O)N[C@@H](CCc2ccc(C(F)(F)F)c(OC)c2)C(=O)N2C[C@H](OCC)C[C@H]2C(=O)NC2(CC(C)(C)C2)C(=O)N(C)[C@@H](C2CCCC2)C(=O)N(C)[C@H](C(=O)N(C)CC)CC(=O)N1C [PP2051]	120	A (a compound having 10 or more and less than 20 is denoted as A)	A (a compound having 10 or more and less than 20 is denoted as A)
C#CCN1CC(=O)N(C)[C@H]2C/C=C\CCN(C2=O)[C@@H](Cc2ccc(C)cc2)C(=O)N(C)CC(=O)N[C@@H](CCc2cc(F)c(C(F)(F)F)c(F)c2)C(=O)N2C[C@H](OCC)C[C@H]2C(=O)NC2(CC(C)(C)C2)C(=O)N(C)[C@@H](C2CCCC2)C(=O)N(C)[C@H](C(=O)N(C)C)CC(=O)N(C)[C@@H](CC(C)C)C(=O)N[C@@H]([C@@H](C)CC)C1=O [PP2052]	160	A (a compound having 10 or more and less than 20 is denoted as A)	A (a compound having 10 or more and less than 20 is denoted as A)
C#CC[C@H]1C(=O)N[C@@H]([C@@H](C)CC)C(=O)N(C)CC(=O)N(C)[C@H]2C/C=C\CCN(C2=O)[C@@H](Cc2ccc(C(F)(F)F)cc2)C(=O)N(C)CC(=O)N[C@@H](CCc2ccc(C(F)(F)F)c(OC)c2)C(=O)N2C[C@H](OCC)C[C@H]2C(=O)NC2(CC(C)(C)C2)C(=O)N(C)[C@@H](C2CCCC2)C(=O)N(C)[C@H](C(=O)N(C)CCC)CC(=O)N1C [PP2053]	130	A (a compound having 10 or more and less than 20 is denoted as A)	A (a compound having 10 or more and less than 20 is denoted as A)
C#CC[C@H]1C(=O)N[C@@H]([C@@H](C)CC)C(=O)N(C)CC(=O)N(C)[C@H]2C/C=C\CCN(C2=O)[C@@H](Cc2ccc(C(F)(F)F)cc2)C(=O)N(C)CC(=O)N[C@@H](CCc2ccc(C(F)(F)F)c(OC)c2)C(=O)N2C[C@@H](C)C[C@H]2C(=O)NC2(CC(C)(C)C2)C(=O)N(C)[C@@H](C2CCCC2)C(=O)N(C)[C@H](C(=O)N(C)CC)CC(=O)N1C [PP2055]	180	A (a compound having 10 or more and less than 20 is denoted as A)	B (a compound having 3 or more and less than 10 is denoted as B)
C#CC[C@H]1C(=O)N[C@@H]([C@@H](C)CC)C(=O)N(C)CC(=O)N(C)[C@H]2C/C=C\CCN(C2=O)[C@@H](Cc2ccc(C(F)(F)F)cc2)C(=O)N(C)CC(=O)N[C@@H](CCc2ccc(C(F)(F)F)c(OC)c2)C(=O)N2C[C@H](OCC)C[C@H]2C(=O)NC2(CCC2)C(=O)N(C)[C@@H](C2CCCC2)C(=O)N(C)[C@H](C(=O)N(C)CCC)CC(=O)N1C [PP2059]	93	A (a compound having 10 or more and less than 20 is denoted as A)	A (a compound having 10 or more and less than 20 is denoted as A)
C#CC[C@H]1C(=O)N[C@@H]([C@@H](C)CC)C(=O)N(C)CC(=O)N(C)[C@H]2C/C=C\CCN(C2=O)[C@@H](Cc2ccc(C(F)(F)F)cc2)C(=O)N(C)CC(=O)N[C@@H](CCc2ccc(C(F)(F)F)c(OC)c2)C(=O)N2C[C@@H](C)C[C@H]2C(=O)NC2(CCC2)C(=O)N(C)[C@@H](C2CCCC2)C(=O)N(C)[C@H](C(=O)N(C)CC)CC(=O)N1C [PP2061]	75	AA (a compound having 20 or more is denoted as AA)	A (a compound having 10 or more and less than 20 is denoted as A)
CCO[C@@H]1C[C@H]2C(=O)NC3(CC(C)(C)C3)C(=O)N(C)[C@@H](C(CC)CC)C(=O)N(C)[C@H](C(=O)N(C)C)CC(=O)N(C)[C@@H](CC)C(=O)N[C@@H]([C@@H](C)CC)C(=O)N(C)CC(=O)N(C)[C@H]3C/C=C\CCN(C3=O)[C@@H](Cc3ccc(C(F)(F)F)cc3)C(=O)N(C)CC(=O)N[C@@H](CCc3cc(F)c(C(F)(F)F)c(F)c3)C(=O)N2C1 [PP2062]	190	AA (a compound having 20 or more is denoted as AA)	A (a compound having 10 or more and less than 20 is denoted as A)
CC[C@H](C)[C@@H]1NC(=O)[C@H](C(C)C)N(C)C(=O)C[C@@H](C(=O)N(C)CC)N(C)C(=O)[C@H](C2CCCC2)N(C)C(=O)C2(CCC2)NC(=O)[C@@H]2C[C@H](C)CN2C(=O)[C@H](CCc2ccc(C(F)(F)F)c(OC)c2)NC(=O)CN(C)C(=O)[C@H](Cc2ccc(C(F)(F)F)cc2)N2CC/C=C\C[C@@H](C2=O)N(C)C(=O)CN(C)C1=O [PP2065]	220	A (a compound having 10 or more and less than 20 is denoted as A)	B (a compound having 3 or more and less than 10 is denoted as B)
CCO[C@@H]1C[C@H]2C(=O)NC3(CC(C)(C)C3)C(=O)N(C)[C@@H](C(CC)CC)C(=O)N(C)[C@H](C(=O)N(C)C)CC(=O)N(C)[C@@H](CC)C(=O)N[C@@H]([C@@H](C)CC)C(=O)N(C)CC(=O)N(C)[C@H]3C/C=C\CCN(C3=O)[C@@H](Cc3ccc(C(F)(F)F)cc3)C(=O)N(C)CC(=O)N[C@@H](CCc3ccc(C(F)(F)F)c(OC)c3)C(=O)N2C1 [PP2066]	250	A (a compound having 10 or more and less than 20 is denoted as A)	B (a compound having 3 or more and less than 10 is denoted as B)
CCCN(C)C(=O)[C@@H]1CC(=O)N(C)[C@@H](C(C)C)C(=O)N[C@@H]([C@@H](C)CC)C(=O)N(C)CC(=O)N(C)[C@H]2C/C=C\CCN(C2=O)[C@@H](Cc2ccc(C(F)(F)F)cc2)C(=O)N(C)CC(=O)N[C@@H](CCc2ccc(C(F)(F)F)c(OC)c2)C(=O)N2C[C@@H](C)C[C@H]2C(=O)NC2(CCC2)C(=O)N(C)[C@@H](C2CCCC2)C(=O)N1C [PP2067]	240	AA (a compound having 20 or more is denoted as AA)	A (a compound having 10 or more and less than 20 is denoted as A)
CCC[C@H]1C(=O)N[C@@H]([C@@H](C)CC)C(=O)N(C)CC(=O)N(C)[C@H]2C/C=C\CCN(C2=O)[C@@H](Cc2ccc(C)cc2)C(=O)N(C)CC(=O)N[C@@H](CCc2ccc(C(F)(F)F)c(OC)c2)C(=O)N2C[C@H](OCC)C[C@H]2C(=O)NC2(CC(C)(C)C2)C(=O)N(C)[C@@H](C(CC)CC)C(=O)N(C)[C@H](C(=O)N(C)C)CC(=O)N1C [PP2068]	360	A (a compound having 10 or more and less than 20 is denoted as A)	B (a compound having 3 or more and less than 10 is denoted as B)
